Values of other authors, collected in patent US9877951B2, “Method for treating dementia” (College of William and Mary, priority 2015, dated 2018).
Like-named read-outs stand apart in the source and are kept apart here.

How the values were obtained:
[1] = not given; remark: listed apart in the source
[2] = system: Mycobacterium tuberculosis strains; conditions: typical Mycobacterium tuberculosis strains
[3] = for ability of DCS to facilitate extinction: DCS for five consecutive days
[4] = chronic dosing at typical tuberculosis doses
[5] = storage

N[C@@H]1CON=C1O [DCS, 3-Isoxazolidinone, 4-amino-, (4R)-(9Cl)]
serum concentrations generally maintained (dose of 500 mg/day): 25000 to 30000 ng/mL | time of peak serum concentrations after dosing (oral capsules): 3 to 8 h | peak serum concentrations (sub-antimicrobial doses (less than or equal to 2 mg/kg)): less than or equal to 5 μg/mL | benefit on Alzheimer's Disease ([1]; 100 mg daily administration (Tsai et al.)): positive benefit | benefit for treatment of Alzheimer's Disease ([1]; up to 50 mg daily dosing, 410-patient trial (Fakouhi et al.)): did not have a significant benefit | minimum inhibitory concentrations (MIC) in vitro [2]: 6 to 25 µg/mL | ability of DCS to facilitate extinction learning ([3]; rats exposed to DCS for 15 consecutive days): eliminated | ability of DCS to facilitate extinction ([3]; rats, extinction paradigm 28 days later): restored | ability of DCS to facilitate extinction ([3]; rats, extinction paradigm two days later): significantly decreased | recorded side effects [4]: drowsiness, depression, headache, confusion, tremor, vertigo, and memory difficulties, paresthesias, and seizure

CC(=O)C=C(C)N[C@@H]1CONC1=O [(R)-4-[(1-methyl-3-oxo-1-butenyl)-amino]-3-isoxazolidinone]
stability relative to DCS [5]: enhanced stability relative to DCS

CN(C)CCCN1c2ccccc2CCc2ccccc21 [imipramine]
effect on ability of DCS to facilitate extinction learning ([3]; rats, daily administration of imipramine for 15 days): blocked the ability of DCS to facilitate extinction learning
